Experimental data: patent publication US20200276165A1, “OVOTIOLS FOR THE TREATMENT OF CHRONIC LOW-GRADE SYSTEMIC INFLAMMATION (CLGSI) AND RELATED DISEASES” (UNIVERSITA' DEGLI STUDI G. D'ANNUNZIO CHIETI - PESCARA, priority 2017, published 2020)

Tests used:
C-HUVECs [1] = assay: MTT assay, cell viability; assay type: cell-based, human; details: C-HUVEC
Source text: (§1) Cell endothelial cultures and experimental protocols: umbilical cords were obtained from randomly selected healthy Caucasian (Control, C) and with Gestational Diabetes (GD) mothers delivering at the Hospital of Chieti and Pescara. All procedures were in agreement with the ethical standards of the Institutional Committee on Human Experimentation (Reference Number: 1879/09COET) and with the Declaration of Helsinki Principles. After approval of the protocol by the Institutional Review Board, signed informed consent was obtained from each participating subject. Primary C- and GD-HUVECs were obtained and used between the 3rd and 5th passages in vitro. To evaluate the potential cytotoxicity of ovothiol, HUVECs were stimulated for 24 h with different doses (10-100 μM) of ovothiol A. The best doses of ovothiol A were used to evaluate their effects on the cells treated with TNF (1 ng/ml, Sigma Aldrich) which activated the inflammatory response. Briefly, HUVECs were grown to sub-confluence in complete culture medium DMEM/M199 (Mascia Brunelli, Italia). The cells were pre-incubated with ovothiol A (10 and 50 μM) for 24 hours or with medium alone as basal condition. Subsequently the cells were stimulated with TNF for 16 hours.
(§2) MTT assay: ovothiol effect on the viability of C- and GD-HUVECs was evaluated by the 3-(4,5 dimethylthiazolyl-2)-2,5-diphenyltetrazolium bromide (MTT, Sigma-Aldrich) assay. 1×10^5 cells were plated in 96-well plates, grown to sub-confluence with the medium alone (as control) or stimulated for 24 h with growing doses of ovothiol A (10-100 μM), in the presence or absence of TNFα stimulation (1 ng/ml). A solution of MTT in phosphate buffer saline (PBS) was added to each well to a final concentration of 5 mg/ml. After 3 h incubation at 37° C., the cellular viability was evaluated before addition of 0.2 ml dimethylsulfoxide (DMSO, Sigma-Aldrich) for crystal solubilization in the vital cells. The absorbance at 540 nm was read using a micro-plate reader (SpectraMAX 190, Molecular Devices Inc., Sunnyvale, Calif., USA) and results were expressed as the absorbance at 540 nm (ABS 540 nm).

GD-HUVECs [2] = assay: MTT assay, cell viability; assay type: cell-based, human; details: GD-HUVEC
Source text: as §1, §2

C-HUVECs [3] = assay: Analysis of ovothiol A levels in cell cultures (HPLC); assay type: in vitro ADME, human
Method: (§3) Analysis of Ovothiol A levels in cell cultures: HUVEC cells (1,2×10^6 cellule) were cultured in flasks (25 cm^2) in the absence and in the presence of 50 μM ovothiol A and collected after incubation at different time intervals. The culture media were recovered by centrifugation and frozen for ovothiol A quantitation by HPLC analysis. The cellular pellets were resuspended in PBS pH 7.5, sonicated three times for 15 sec and 30% amplitude. The samples were then centrifuged at 13.000 rpm over 15 min to remove cellular debris, ultrafiltered by Microcon 3 to remove all molecules with MW>3 kDa and frozen for further analysis by HPLC. HPLC analyses were performed in duplicate on an LC10AD instrument equipped with binary pumps and a Shimadzu SPD-10AVP detector set at 254 nm and 280 nm. A Phenomenex Synergi Sphereclone octadecylsilane (25 cm×0.46 cm, 4 μm particle size) column was used with 1% formic acid taken to pH 4.5 with ammonia, as the eluant, at a 0.7 mL/min flow rate.

GD-HUVECs [4] = assay: as above; assay type: in vitro ADME, human
Method: as §3

[5] = Ovothiol A level in medium without the cells (HPLC); assay type: in vitro ADME; details: Control: medium without the cells, ovothiol A 50 μM
Method: as §3

[6] = system: U937 monocytes adhesion to C-HUVECs; assay: Adhesion of monocytes to endothelium assay; assay type: cell-based, human; details: C-HUVEC, 24 hours pre-treatment with 10 and 50 μM, TNFα 1 ng/ml 16 hours
Source text: (§4) Cell endothelial cultures and experimental protocols: umbilical cords were obtained from randomly selected healthy Caucasian (Control, C) and with Gestational Diabetes (GD) mothers delivering at the Hospital of Chieti and Pescara. All procedures were in agreement with the ethical standards of the Institutional Committee on Human Experimentation (Reference Number: 1879/09COET) and with the Declaration of Helsinki Principles. After approval of the protocol by the Institutional Review Board, signed informed consent was obtained from each participating subject. Primary C- and GD-HUVECs were obtained and used between the 3rd and 5th passages in vitro. […]
(§5) Adhesion of monocytes to endothelium assay: adhesion of U937 monocytes to C- and GD-HUVECs was evaluated in the basal state, after 16 hours of TNFα treatment (1 ng/ml) and in presence of ovothiol A (10-50 μM). The cells were grown to confluence in six-well culture plates and U937 adhesion was evaluated as previously described (Di Tomo, P., Lanuti, P., Di Pietro, N., Baldassarre, M. P. A., Marchisio, M., Pandolfi, A., Consoli, A., Formoso, G. (2017) Liraglutide mitigates TNF-α induced pro-atherogenic changes and Microvesicles release in HUVEC from diabetic women. Diabetes Metab. Res. Rev. doi: 10.1002/dmrr.2925).

[7] = system: U937 monocytes adhesion to GD-HUVECs; assay: Adhesion of monocytes to endothelium assay; assay type: cell-based, human; details: GD-HUVEC, 24 hours pre-treatment with 10 and 50 μM, TNFα 1 ng/ml 16 hours
Source text: as §4, §5

VCAM-1 on C-HUVEC = assay: Flow cytometry, membrane exposure of VCAM-1; assay type: cell-based, human; details: 50 μM ovothiol A, TNFα
Source text: as §4
(§6) Flow cytometry: for flow cytofluorimetry analysis, C- and GD-HUVECs were stimulated as described in the experimental protocols. […] The intracellular levels of peroxynitrite (ONOO—) were detected in C- and GD-HUVECs by using the HKGreen-4A probe (10 μM, 30 min at 37° C.) synthesized and provided by the laboratory of Prof. […] Reactive Oxygen Species (ROS) levels were evaluated with the fluorogenic reagent dichlorofluorescein diacetate (DCF-DA, Sigma-Aldrich) (20 μM, 45 min at 37° C.). All samples were analyzed using a FACS Calibur or FACS Canto II (BD Bioscences). The levels of membrane proteins (VCAM-1 and ICAM-1), fluorescence detection of ONOO— and ROS were evaluated by cytometric analysis of over 10.000 events for each sample. […]

VCAM-1 on GD-HUVEC = assay: Flow cytometry, membrane exposure of VCAM-1; assay type: cell-based, human; details: 50 μM ovothiol A, TNFα
Source text: as §4, §6

ICAM-1 on C-HUVEC = assay: Flow cytometry, membrane exposure of ICAM-1; assay type: cell-based, human; details: 50 μM ovothiol A, TNFα
Source text: as §4, §6

ICAM-1 on GD-HUVEC = assay: Flow cytometry, membrane exposure of ICAM-1; assay type: cell-based, human; details: 50 μM ovothiol A, TNFα
Source text: as §4, §6

cGMP levels in C-HUVECs = assay: Cyclic guanosine mono phosphate assay (cGMP), EIA; assay type: cell-based, human
Method: Cyclic guanosine mono phosphate assay (cGMP): intracellular cGMP levels were evaluated by using a commercially available Enzyme Immunoassay (EIA) kit (GE Healthcare, Little Chalfont, Buckinghamshire, UK).

[8] = system: peroxynitrite in C-HUVECs; assay: Peroxynitrite levels by flow cytometry, HKGreen-4A probe; assay type: cell-based, human; details: C-HUVEC
Source text: as §1
(§7) Flow cytometry: for flow cytofluorimetry analysis, C- and GD-HUVECs were stimulated as described in the experimental protocols. Non-permeabilized cells were detached by tetra-acetic ethylene-diamine acid solution (EDTA) 5 mM, washed and resuspended in bovine serum albumin (BSA) 0.5%. Cells harvested by centrifugation at 800 rpm for 15 min were incubated with anti-VCAM-1 PE-conjugate (1:100, phycoerythrin; Biolegend, San Diego, Calif., USA) and anti-ICAM-1 FITC-conjugate (1:100, fluorescein isothiocyanate; Biolegend) antibodies, both for 30 min at 4° C. The intracellular levels of peroxynitrite (ONOO—) were detected in C- and GD-HUVECs by using the HKGreen-4A probe (10 μM, 30 min at 37° C.) synthesized and provided by the laboratory of Prof. Dan Yang's. Reactive Oxygen Species (ROS) levels were evaluated with the fluorogenic reagent dichlorofluorescein diacetate (DCF-DA, Sigma-Aldrich) (20 μM, 45 min at 37° C.). All samples were analyzed using a FACS Calibur or FACS Canto II (BD Bioscences). The levels of membrane proteins (VCAM-1 and ICAM-1), fluorescence detection of ONOO— and ROS were evaluated by cytometric analysis of over 10.000 events for each sample. All data were analyzed using FACS Diva (BD Bioscences) and FlowJo v.8.8.6 software (TreeStar, Ashland, Oreg.) and expressed as percentage (%) of positive cells or MFI (Mean Fluorescence Intensity) Ratio. The MFI Ratio was calculated by dividing the MFI of positive events by the MFI of negative events (MFI of secondary antibody).

[9] = system: peroxynitrite in GD-HUVECs; assay: as above; assay type: cell-based, human; details: GD-HUVEC
Source text: as §1, §7

ROS in C-HUVECs = assay: ROS levels by flow cytometry (DCF-DA); assay type: cell-based, human; details: C-HUVEC, in the absence of TNFα
Source text: as §4, §6

ROS in GD-HUVECs = assay: ROS levels by flow cytometry (DCF-DA); assay type: cell-based, human; details: GD-HUVEC, under inflammatory conditions (TNFα)
Source text: as §4, §6

[10] = system: intracellular GSH in GD-HUVECs; assay: Determination of intracellular glutathione levels (GSH); assay type: cell-based, human; details: GD-HUVEC, after 10 minutes of incubation of ovothiol A
Method: as §3, with “A Phenomenex Synergi Sphereclone octadecylsilane (25 cm×0.46 cm, 4 μm particle size) column was used with 1% formic acid taken to pH 4.5 with ammonia, as the eluant, at a 0.7 mL/min flow rate.” left out
Determination of intracellular glutathione levels (GSH): total GSH was determined by using the Glutathione Assay Kit (Sigma). […] The supernatant was used for the determination of glutathione by performing a kinetic assay in which catalytic amounts (nmoles) of GSH caused a continuous reduction of 5,5-dithiobis (2-nitrobenzoic acid) (DTNB) to 5-thio-2-nitrobenzoic (TNB), measured at 405 nm by a Thermo Scientific™ Multiskan™ FC Microplate Photometer.

Hep-G2 cell line = details: epatocarcinoma cell lines; cited from earlier work
[11] = 50 μM, in the presence or absence of TNFα
[12] = C-HUVECs incubated 30 minutes with ovothiol A 50 μM, HPLC
[13] = GD-HUVECs incubated 30 minutes with ovothiol A 50 μM, HPLC
[14] = pre-treatment with 50 μM, after exposure to TNFα
[15] = Ionomycin 50 nM in combination with PMA 0.3 μM, positive control

ovothiol A
cell viability parameters (MTT) (C-HUVECs [1]; [11]): no significant changes | cytotoxicity (viability by MTT assay) (C-HUVECs [1]; 100 μM ovothiol A, 24 h): cytotoxic | cell viability parameters (MTT) (GD-HUVECs [2]; [11]): no significant changes | cytotoxicity (viability by MTT assay) (GD-HUVECs [2]; 100 μM ovothiol A, 24 h): cytotoxic | kinetic decay of the compound in the medium (C-HUVECs [3]; C-HUVEC medium, 50 μM, compared to the medium without the cells): very rapid | ovothiol A in cells (C-HUVECs [3]; [12]): 1.18 pmol/cell | ovothiol A in medium (C-HUVECs [3]; [12]): 14.86 ± 1.24 µmol/L | kinetic decay of the compound in the medium (GD-HUVECs [4]; GD-HUVEC medium, 50 μM, compared to the medium without the cells): very rapid | ovothiol A in cells (GD-HUVECs [4]; [13]): 1.53 pmol/cell | ovothiol A in medium (GD-HUVECs [4]; [13]): 10.08 ± 1.68 µmol/L | ovothiol A in medium [5]: 45 µmol/L | U937 cell adhesion (number of adherent cells) [6]: only on GD-HUVECs | U937 cell adhesion (number of adherent cells) [7]: significant reduction | exposure of VCAM-1 on the membrane (VCAM-1 on C-HUVEC): significantly reduced | exposure of VCAM-1 on the membrane (VCAM-1 on GD-HUVEC): significantly reduced | effect on ICAM-1 levels (membrane exposure) (ICAM-1 on C-HUVEC): did not reach the statistical significance | effect on ICAM-1 levels (membrane exposure) (ICAM-1 on GD-HUVEC): did not reach the statistical significance | cGMP levels, effect of ovothiol A with TNFα treatment (cGMP levels in C-HUVECs; C-HUVEC, TNFα+Ovot): abolished | cGMP levels (cGMP levels in C-HUVECs; C-HUVEC, ovothiol A treatment): significantly increased | cGMP levels, effect of ovothiol A with L-NAME pre-incubation (cGMP levels in C-HUVECs; pre-incubation with L-NAME 1 mM for 45 minutes): not affected | levels of peroxynitrite [8, 14]: significantly reduced | levels of peroxynitrite [9, 14]: significantly reduced | ROS levels (ROS in C-HUVECs): reduced ROS levels | ROS levels (ROS in GD-HUVECs): reduced ROS levels | intracellular GSH levels [10]: increased significantly | autophagy (Hep-G2 cell line): induces autophagy | reduction of reactive oxygen species (Hep-G2 cell line): without inducing a reduction of reactive oxygen species

C[C@H](CCC(=O)O)C[C@H](C)C[C@H](C)C(=O)/C=C(\O)[C@H](C)C[C@H](C)C/C=C/[C@@H](C)[C@@H](O)[C@@H](C)[C@@H](O)C[C@@H]1CC[C@@](C)([C@H]2CC[C@@](C)([C@@H](C)O)O2)O1 [Ionomycin, reference compound]
cGMP levels (cGMP levels in C-HUVECs; C-HUVEC, positive control): induced the increase of cGMP levels | peroxynitrite formation [8, 15]: induced peroxynitrite formation | peroxynitrite formation [9, 15]: induced peroxynitrite formation

COC(=O)[C@@H](N)CCCNC(=N)N[N+](=O)[O-] [L-NAME, reference compound]
cGMP levels, addition of L-NAME to Ionomycin (cGMP levels in C-HUVECs; C-HUVEC, Ionomycin-stimulated): restored the initial levels
